In PMC3427755 (Organic & biomolecular chemistry, 2012):

What was measured:
EGFR = EGFR (Homo sapiens, UniProt P00533); experiment: Kinase profiling, EGFR; type: biochemical; conditions: read-out: Inhibition rate (%) EGFR
[1] = tested on: 1205Lu (B-Raf^V600E bearing) melanoma cells; experiment: Melanoma proliferation assay; type: cell-based, human; conditions: dose-dependent, 72 h, Figure 3
B-Raf^WT = B-Raf^WT (Homo sapiens, UniProt P15056); experiment: In vitro B-Raf kinase assay; type: biochemical
FGFR1 = FGFR1 (Homo sapiens, UniProt P11362); experiment: Kinase profiling, FGFR1; type: biochemical
[2] = tested on: WM983B (B-Raf^V600E bearing) melanoma cells; experiment: Melanoma proliferation assay; type: cell-based, human; conditions: dose-dependent, 72 h, Figure 3
P38α = P38α (Homo sapiens, UniProt Q16539); experiment: Kinase profiling, P38α; type: biochemical; conditions: read-out: Inhibition rate (%) P38α
IGF1R = IGF1R (Homo sapiens, UniProt P08069); experiment: Kinase profiling, IGF1R; type: biochemical; conditions: read-out: Inhibition rate (%) IGF1R
[3] = tested on: normal human primary fibroblasts (FF2508); experiment: Proliferation assay; type: cell-based; conditions: dose-dependent, 72 h, Figure 3
[4] = tested on: A375 (B-Raf^V600E) malignant melanoma cells; experiment: Anti-proliferation activity, A375 melanoma cells; type: cell-based, human
LCK = LCK (Homo sapiens, UniProt P06239); experiment: Kinase profiling, LCK; type: biochemical; conditions: read-out: Inhibition rate (%) LCK
ERK1 = ERK1 (Homo sapiens, UniProt P27361); experiment: Kinase profiling, ERK1; type: biochemical; conditions: read-out: Inhibition rate (%) ERK1
MET = MET (Homo sapiens, UniProt P08581); experiment: Kinase profiling, MET; type: biochemical; conditions: read-out: Inhibition rate (%) MET
cKIT = cKIT (Homo sapiens, UniProt P10721); experiment: Kinase profiling, cKIT; type: biochemical; conditions: read-out: Inhibition rate (%) cKIT
SRC = SRC (Homo sapiens, UniProt P12931); experiment: Kinase profiling, SRC; type: biochemical; conditions: read-out: Inhibition rate (%) SRC
IKKβ = target: T1, IKKβ (Homo sapiens, UniProt O14920); experiment: Kinase profiling, IKKβ; type: biochemical
T1 sequence (O14920 1-756): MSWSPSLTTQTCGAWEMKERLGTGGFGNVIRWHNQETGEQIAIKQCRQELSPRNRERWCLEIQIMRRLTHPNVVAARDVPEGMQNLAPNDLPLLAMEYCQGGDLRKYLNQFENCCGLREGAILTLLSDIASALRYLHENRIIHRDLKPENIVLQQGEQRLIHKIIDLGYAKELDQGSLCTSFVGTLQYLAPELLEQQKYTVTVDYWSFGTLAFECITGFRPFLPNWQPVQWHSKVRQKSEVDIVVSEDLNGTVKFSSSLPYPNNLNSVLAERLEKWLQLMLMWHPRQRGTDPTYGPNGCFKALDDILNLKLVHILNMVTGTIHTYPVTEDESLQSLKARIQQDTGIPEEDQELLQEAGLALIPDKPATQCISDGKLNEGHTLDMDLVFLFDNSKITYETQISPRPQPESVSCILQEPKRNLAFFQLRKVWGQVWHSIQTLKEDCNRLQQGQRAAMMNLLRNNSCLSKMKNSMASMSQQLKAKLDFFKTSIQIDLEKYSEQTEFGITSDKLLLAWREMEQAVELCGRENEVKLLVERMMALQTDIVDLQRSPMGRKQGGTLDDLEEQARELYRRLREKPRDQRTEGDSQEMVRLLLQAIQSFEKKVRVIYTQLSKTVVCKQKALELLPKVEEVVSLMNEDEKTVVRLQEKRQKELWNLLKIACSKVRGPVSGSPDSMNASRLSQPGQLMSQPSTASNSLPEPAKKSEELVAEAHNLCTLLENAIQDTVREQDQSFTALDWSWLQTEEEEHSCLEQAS

PDGFRα = PDGFRα (Homo sapiens, UniProt P16234); experiment: Kinase profiling, PDGFRα; type: biochemical; conditions: read-out: Inhibition rate (%) PDGFRα
AKT1 = AKT1 (Homo sapiens, UniProt P31749); experiment: Kinase profiling, AKT1; type: biochemical; conditions: read-out: Inhibition rate (%) AKT1
[5] = tested on: WM3918 melanoma cells not expressing mutant B-Raf; experiment: Melanoma proliferation assay; type: cell-based, human; conditions: dose-dependent, 72 h, Figure 3
PKCα = PKCα (Homo sapiens, UniProt P17252); experiment: Kinase profiling, PKCα; type: biochemical; conditions: read-out: Inhibition rate (%) PKCα
CDK2 = CDK2 (Homo sapiens, UniProt P24941); experiment: Kinase profiling, CDK2; type: biochemical; conditions: read-out: Inhibition rate (%) CDK2
KDR = KDR (Homo sapiens, UniProt P35968); experiment: Kinase profiling, KDR; type: biochemical; conditions: read-out: Inhibition rate (%) KDR
[6] = read-out: Inhibition rate (%) FGFR1
[7] = read-out: Inhibition rate (%) IKKβ

FGFR1, sequence (P11362 22-822, species assumed): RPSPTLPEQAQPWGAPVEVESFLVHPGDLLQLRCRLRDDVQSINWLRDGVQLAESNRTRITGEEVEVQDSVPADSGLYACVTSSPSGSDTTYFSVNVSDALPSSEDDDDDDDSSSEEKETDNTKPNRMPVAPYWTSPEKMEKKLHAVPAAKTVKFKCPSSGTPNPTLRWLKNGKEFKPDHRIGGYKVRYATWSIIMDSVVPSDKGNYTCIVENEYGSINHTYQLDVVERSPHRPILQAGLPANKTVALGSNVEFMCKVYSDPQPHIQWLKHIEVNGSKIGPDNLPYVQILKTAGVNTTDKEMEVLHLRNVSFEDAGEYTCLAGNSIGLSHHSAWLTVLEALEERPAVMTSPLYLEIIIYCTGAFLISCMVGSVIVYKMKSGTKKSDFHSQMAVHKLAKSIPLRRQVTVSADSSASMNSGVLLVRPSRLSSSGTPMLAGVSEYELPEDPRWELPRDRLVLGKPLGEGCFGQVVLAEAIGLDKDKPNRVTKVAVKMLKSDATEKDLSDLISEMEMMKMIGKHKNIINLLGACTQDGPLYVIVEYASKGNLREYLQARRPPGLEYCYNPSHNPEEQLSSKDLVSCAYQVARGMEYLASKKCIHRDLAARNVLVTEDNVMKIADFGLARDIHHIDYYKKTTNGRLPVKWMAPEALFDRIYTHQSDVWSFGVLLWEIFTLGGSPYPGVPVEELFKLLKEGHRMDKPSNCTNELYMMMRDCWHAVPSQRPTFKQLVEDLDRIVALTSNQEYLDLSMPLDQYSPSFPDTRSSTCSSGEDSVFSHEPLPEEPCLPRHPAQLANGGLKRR
SRC, sequence (P12931 whole entry, species assumed): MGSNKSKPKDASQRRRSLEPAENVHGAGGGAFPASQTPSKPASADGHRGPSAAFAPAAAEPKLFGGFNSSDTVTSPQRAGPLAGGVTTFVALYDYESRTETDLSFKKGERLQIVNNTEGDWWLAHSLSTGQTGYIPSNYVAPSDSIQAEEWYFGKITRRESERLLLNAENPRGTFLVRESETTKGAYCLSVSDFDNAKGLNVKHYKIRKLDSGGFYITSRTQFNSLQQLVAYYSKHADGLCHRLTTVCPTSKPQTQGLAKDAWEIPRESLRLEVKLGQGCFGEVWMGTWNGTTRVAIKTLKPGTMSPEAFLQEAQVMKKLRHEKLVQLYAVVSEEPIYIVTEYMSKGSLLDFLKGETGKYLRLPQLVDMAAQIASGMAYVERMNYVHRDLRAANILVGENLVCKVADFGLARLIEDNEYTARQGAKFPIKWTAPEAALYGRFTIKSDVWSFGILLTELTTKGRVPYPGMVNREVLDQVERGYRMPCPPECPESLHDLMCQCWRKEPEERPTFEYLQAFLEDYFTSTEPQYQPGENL
ERK1, sequence (P27361 whole entry, species assumed): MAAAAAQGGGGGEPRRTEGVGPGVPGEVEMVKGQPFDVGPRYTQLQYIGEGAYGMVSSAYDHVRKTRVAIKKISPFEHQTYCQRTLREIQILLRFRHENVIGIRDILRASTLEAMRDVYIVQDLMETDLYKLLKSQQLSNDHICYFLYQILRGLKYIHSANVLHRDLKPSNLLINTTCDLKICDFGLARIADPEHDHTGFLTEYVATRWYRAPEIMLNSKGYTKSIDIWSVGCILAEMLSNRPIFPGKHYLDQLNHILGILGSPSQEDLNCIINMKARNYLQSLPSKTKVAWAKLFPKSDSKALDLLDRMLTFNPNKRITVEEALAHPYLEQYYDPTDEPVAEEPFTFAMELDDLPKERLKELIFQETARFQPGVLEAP
KDR, sequence (P35968 20-1356, species assumed): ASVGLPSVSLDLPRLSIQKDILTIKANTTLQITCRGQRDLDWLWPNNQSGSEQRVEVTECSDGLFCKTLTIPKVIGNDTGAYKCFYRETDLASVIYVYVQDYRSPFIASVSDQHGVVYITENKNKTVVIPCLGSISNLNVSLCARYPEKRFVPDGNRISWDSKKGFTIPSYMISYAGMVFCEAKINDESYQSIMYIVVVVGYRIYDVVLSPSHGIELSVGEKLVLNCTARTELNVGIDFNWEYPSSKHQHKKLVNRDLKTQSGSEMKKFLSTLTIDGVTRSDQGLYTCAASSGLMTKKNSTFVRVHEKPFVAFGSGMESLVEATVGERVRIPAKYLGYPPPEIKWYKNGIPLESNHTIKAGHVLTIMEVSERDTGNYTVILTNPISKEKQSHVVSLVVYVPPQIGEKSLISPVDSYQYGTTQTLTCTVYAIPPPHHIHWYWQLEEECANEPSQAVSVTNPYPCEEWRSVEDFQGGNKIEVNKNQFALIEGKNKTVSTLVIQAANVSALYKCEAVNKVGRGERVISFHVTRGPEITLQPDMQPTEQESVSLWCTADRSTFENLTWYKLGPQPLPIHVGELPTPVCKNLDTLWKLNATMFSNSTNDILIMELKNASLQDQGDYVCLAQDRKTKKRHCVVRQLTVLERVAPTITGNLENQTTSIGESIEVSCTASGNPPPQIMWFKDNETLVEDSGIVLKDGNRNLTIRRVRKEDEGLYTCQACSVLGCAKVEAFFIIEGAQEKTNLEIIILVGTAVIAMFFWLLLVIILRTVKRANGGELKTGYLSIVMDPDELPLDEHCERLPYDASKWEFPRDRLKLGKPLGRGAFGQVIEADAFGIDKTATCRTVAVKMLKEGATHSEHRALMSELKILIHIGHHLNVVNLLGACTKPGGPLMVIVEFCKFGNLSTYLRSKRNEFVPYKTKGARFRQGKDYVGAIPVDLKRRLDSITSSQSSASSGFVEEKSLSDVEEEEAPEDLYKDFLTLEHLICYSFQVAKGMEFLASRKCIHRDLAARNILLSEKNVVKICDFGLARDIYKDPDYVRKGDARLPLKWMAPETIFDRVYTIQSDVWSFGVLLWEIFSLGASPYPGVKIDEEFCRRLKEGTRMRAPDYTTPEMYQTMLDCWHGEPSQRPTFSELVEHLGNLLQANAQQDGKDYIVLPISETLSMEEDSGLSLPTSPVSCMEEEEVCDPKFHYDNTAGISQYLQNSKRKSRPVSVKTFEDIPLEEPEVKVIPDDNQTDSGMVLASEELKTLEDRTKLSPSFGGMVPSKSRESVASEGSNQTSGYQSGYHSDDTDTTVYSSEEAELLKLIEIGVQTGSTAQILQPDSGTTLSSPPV
EGFR, sequence (P00533 25-1210, species assumed): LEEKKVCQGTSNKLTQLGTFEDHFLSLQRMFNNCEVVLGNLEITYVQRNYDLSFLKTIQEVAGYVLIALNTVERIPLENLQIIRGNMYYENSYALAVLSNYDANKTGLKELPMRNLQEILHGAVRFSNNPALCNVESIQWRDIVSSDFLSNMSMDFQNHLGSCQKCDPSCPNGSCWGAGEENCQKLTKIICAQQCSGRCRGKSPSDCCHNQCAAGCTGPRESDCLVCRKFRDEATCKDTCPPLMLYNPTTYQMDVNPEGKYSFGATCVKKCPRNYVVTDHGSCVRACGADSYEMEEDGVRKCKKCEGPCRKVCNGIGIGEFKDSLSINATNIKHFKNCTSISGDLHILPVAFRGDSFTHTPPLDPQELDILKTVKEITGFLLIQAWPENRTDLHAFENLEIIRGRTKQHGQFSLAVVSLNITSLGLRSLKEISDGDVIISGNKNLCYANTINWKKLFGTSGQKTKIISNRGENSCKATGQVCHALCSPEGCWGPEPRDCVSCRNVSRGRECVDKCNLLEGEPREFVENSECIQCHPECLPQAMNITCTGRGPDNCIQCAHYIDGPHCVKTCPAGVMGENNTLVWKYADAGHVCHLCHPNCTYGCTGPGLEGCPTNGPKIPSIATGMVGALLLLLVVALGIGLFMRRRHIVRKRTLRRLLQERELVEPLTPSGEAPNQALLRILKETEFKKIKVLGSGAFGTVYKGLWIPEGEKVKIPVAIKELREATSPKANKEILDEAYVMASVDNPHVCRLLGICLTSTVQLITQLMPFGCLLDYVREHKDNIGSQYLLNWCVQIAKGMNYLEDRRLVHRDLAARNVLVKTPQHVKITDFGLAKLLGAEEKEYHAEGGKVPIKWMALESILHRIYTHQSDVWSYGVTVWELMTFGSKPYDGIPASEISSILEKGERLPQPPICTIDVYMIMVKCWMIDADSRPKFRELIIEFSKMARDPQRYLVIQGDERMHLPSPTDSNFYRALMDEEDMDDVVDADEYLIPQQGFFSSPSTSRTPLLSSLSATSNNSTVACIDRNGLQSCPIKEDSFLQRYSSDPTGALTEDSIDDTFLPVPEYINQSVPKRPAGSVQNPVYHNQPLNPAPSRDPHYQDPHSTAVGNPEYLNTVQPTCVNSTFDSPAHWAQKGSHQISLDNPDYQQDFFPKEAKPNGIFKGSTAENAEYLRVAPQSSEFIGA

SMILES: O=C1NC(=S)NC(=O)C1=Cc1ccc(-c2ccc(Br)cc2)o1 [Compound 22f, 5-[5-(4-bromo-phenyl)-furan-2ylmethylene]-2-thioxo-dihydro-pyrimidine-4,6-dione]
- inhibition at 1 µM (EGFR): 12.6%
- inhibition at 5 µM (EGFR): 46.1%
- proliferation of 1205Lu cells [1]: significantly inhibited
- IC50 (B-Raf^WT): 600 nM
- Inhibition rate (%) FGFR1 (FGFR1; 5μM, ATP at Km): significantly inhibited
- inhibition at 1 µM (FGFR1; [6]): 15%
- inhibition at 5 µM (FGFR1; [6]): 72.2%
- proliferation of WM983B cells [2]: significantly inhibited
- inhibition at 5 µM (P38α): 7.7%
- inhibition at 1 µM (IGF1R): 9.5%
- inhibition at 5 µM (IGF1R): 15.6%
- proliferation of FF2508 fibroblasts [3]: significantly more resistant
- inhibition at 10 µM ([4]; Homo sapiens, A-375, read-out: Tumor growth inhibition rate A375(B-Raf^V600E)): 65.3%
- Tumor growth inhibition rate A375(B-Raf^V600E) ([4]; [I]=10μM): potent growth inhibition activity
- inhibition at 1 µM (LCK): 10.5%
- inhibition at 5 µM (LCK): 10.5%
- inhibition at 1 µM (ERK1): 14.5%
- inhibition at 5 µM (ERK1): 30.7%
- inhibition at 1 µM (MET): 34.2%
- inhibition at 5 µM (MET): 42.2%
- inhibition at 1 µM (cKIT): 18.6%
- inhibition at 5 µM (cKIT): 40.3%
- inhibition at 1 µM (SRC): 8.6%
- inhibition at 5 µM (SRC): 28.3%
- Inhibition rate (%) IKKβ (IKKβ; 5μM, ATP at Km): significantly inhibited
- inhibition at 1 µM (IKKβ; [7]): 27.8%
- inhibition at 5 µM (IKKβ; [7]): 52.1%
- inhibition at 1 µM (PDGFRα): 7.2%
- inhibition at 5 µM (PDGFRα): 20.4%
- inhibition at 1 µM (AKT1): 10.8%
- inhibition at 5 µM (AKT1): 20.3%
- proliferation of WM3918 cells [5]: significantly more resistant
- inhibition at 1 µM (PKCα): 16.2%
- inhibition at 5 µM (PKCα): 26.4%
- inhibition at 1 µM (CDK2): 11.6%
- inhibition at 5 µM (CDK2): 39.7%
- inhibition at 1 µM (KDR): 3.9%
- inhibition at 5 µM (KDR): 6.1%
